Positions of bridges follow the written chain, without caps; N, C: chain ends. Non-standard residues stand in square brackets, D forms with d. Primed or numbered codes have the meaning given here. Chains are numbered I, II in the order given. No end group written: not given here. PEG12′ = not defined here
Columns and labels:
[1] = system: A172 Cells; test: Cell viability, PrestoBlue Assay; type: cell-based, human; conditions: peptide 10 μM, 18-20 hours, relative to 0.1% DMSO control
Method: The effect of the peptides on cell viability can be assessed in cultured cells using suitable assay of viability such as the PrestoBlue® assay (Thermo Fisher Scientific, Waltham, Mass.). Peptides were initially prepared as 10 mM stock in DMSO and tested at a final concentration of 10 μM (0.1% DMSO). […] PrestoBlue Assay Reagent was purchased from Thermo Fisher Scientific. A172 human brain glioblastoma cell line was purchased from American Type Culture Collection (Manassas, Va.). A172 cells were grown in DMEM supplemented with 10% FBS with 100 IU/ml penicillin and 100 μg/ml streptomycin. Cultures were maintained at 37° C. in a humidified atmosphere of 5% CO2/95% air. A172 cells were seeded at 8,000 cells per well on 96-well plates. […] Cell viability was determined using a PrestoBlue Assay reagent […] according to the manufacturer's instructions. Absorption for each sample well on the plate was measured using a Cytation 3 plate reader at 560 nm and 590 nm (BioTek, Winooski, Vt.). Activity was calculated relative to 0.1% DMSO untreated control. Treatment with 0.1% DMSO alone was used as the cell viability activity control. The relative standard deviation of the DMSO control was <5%.

[2] = system: A172 human brain glioblastoma cell line; test: Caspase 3/7 activity (Caspase-Glo 3/7 Assay); type: cell-based; conditions: peptide 10 μM, 18-20 hours, relative to 0.1% DMSO control
Method: The effect of the peptides on cell death/survival can be assessed using a caspase-3/7 assay in cultured cells. Peptides were dissolved at 10 mM in DMSO as stock solutions for use at a final concentration of 10 μM. […] Caspase-Glo 3/7 Assay Reagent was purchased from Promega (Madison, Wis.). A172 human brain glioblastoma cell line was purchased from American Type Culture Collection (Manassas, Va.). A172 cells were grown in DMEM supplemented with 10% FBS with 100 IU/ml penicillin and 100 μg/ml streptomycin. Cultures were maintained at 37° C. in a humidified atmosphere of 5% CO2/95% air. A172 cells were seeded at 8,000 cells per well on 96-well plates. […] Caspase 3/7 activity was determined using a Caspase-Glo 3/7 Assay kit (Promega) according to the manufacturer's instructions. Luminescence for each sample well on the plate was measured using a Cytation 3 plate reader (BioTek, Winooski, Vt.). Activity was calculated relative to 0.1% DMSO control.

[3] = system: SH-SY5Y Neuroblastoma Cells Exposed to Staurosporine; test: ATP levels in cells exposed to staurosporine; type: cell-based, human; conditions: peptide 10 μM with staurosporine, 18-20 hours; <100% cytoprotective, >100% synergistic
Method: Peptides were initially prepared as 10 mM stock in DMSO and tested at a final concentration of 10 μM (0.1% DMSO). […] […] CellTiter-Glo® Assay kit was purchased from Promega. SH-SY5Y human neuroblastoma cell line was purchased from American Type Culture Collection (Manassas, Va.) and licensed from Memorial Sloan-Kettering Cancer Center (New York, N.Y.). SH-SY5Y cells were grown in DMEM/F12 medium supplemented with 10% FBS with 100 IU/ml penicillin and 100 μg/ml streptomycin. Cultures were maintained at 37° C. in a humidified atmosphere of 5% CO2/95% air. SH-SY5Y cells were seeded at 30,000 cells per well on 96-well plates. […] ATP levels were determined using a CellTiter-Glo Assay kit (Promega) according to the manufacturer's instructions. Luminescence for each sample well on the plate was measured using a Cytation 3 plate reader (BioTek, Winooski, Vt.). […] A value less than 100% is indicative of a cytoprotective effect, while a value greater than 100% is indicative of a synergistic effect on viability.

[4] = system: WI-38 cells (human fetal lung fibroblast cells); test: Fibroblast-to-myofibroblast transition assay, pro-collagen I alpha 1 expression; type: cell-based; conditions: 10 μM peptide and 5 ng/ml TGF-β, 48 h, cell lysates
Method: The effect of the peptides on fibrosis can be assessed in vitro using a fibroblast-to-myofibroblast transition (FMT) assay and monitoring pro-collagen I alpha 1 expression produced by cultured cells such as human fetal lung fibroblast cells. Peptides were initially prepared as 10 mM stock solutions in DMSO or 1 mM stock in H2O and were used at a final concentration of 10 μM (0-0.1% DMSO). Transforming Growth Factor beta (TGF-β) was used as a potent inducer of FMT as measured by increased pro-collagen I alpha 1 expression. Human WI-38 cell line was purchased from American Type Culture Collection (Manassas, Va.). WI-38 cells were seeded in complete medium (DMEM/high glucose (4 g/L)+10% Fetal Bovine Serum+1% penicillin/streptomycin) at 40,000 cells/well on 48-well plates and placed at 37° C. in a humidified atmosphere of 5% CO2/95% air. The next day, the medium was removed, cells were rinsed twice with HBSS, and the medium replaced with Serum Restricted Medium (DMEM/high glucose (4 g/L)+0.2% Fetal Bovine Serum+1% penicillin/streptomycin). The cultures were placed at 37° C. in a humidified atmosphere of 5% CO2/95% air overnight. Following 24 h in Serum Restricted Medium, the medium was removed, and the following was added: fresh Serum Restricted Medium alone (no TGF-β control); fresh Serum Restricted Medium containing 5 ng/ml TGF-β (TGF-β control); or fresh Serum Restricted Medium containing 10 μM peptide and 5 ng/ml TGF-β. Cells were incubated for 48 h at 37° C. in a humidified atmosphere of 5% CO2/95% air, washed twice with cold HBSS and immediately lysed. Lysis and determination of pro-collagen I alpha 1 concentrations in the cell lysates were performed using a Pro-Collagen I Alpha 1 ELISA kit (Abcam; Cambridge, Mass.) according to the manufacturer's instructions; absorbance was measured using a Cytation 3 plate reader at 450 nm (BioTek, Winooski, Vt.).

Row | Substance | PrestoBlue Assay, Percent of Control Activity [1] [%] | Caspase 3/7 Activity, Percent of Control Activity [2] [%] | Percent of ATP Reduction Induced by Control [3] [%] | Procollagen I Alpha 1 Mean (SEM) [4]
1 | MRVIRMCLGVGLLGDLAG [SEQ ID NO: 2] | 100.0 | 109.3 | 104.8 | –
2 | RVIRMCLGVGLLGDL(dA)G (RVIRMCLGVGLLGDL[dA]G) [SEQ ID NO: 4] | 97.7 | 112.4 | 104.1 | –
3 | RVIRMCLGVGLLGDLAG [SEQ ID NO: 3] | 98.9 | 109.4 | 108.4 | –
4 | RVIRMCLGVGLLGDLAGK{PEG12} (chain 1 RVIRMCLGVGLLGDLAGK(PEG12′); chain 2 RVIRMCLGVGLLGDLAGK(PEG12′); disulfide I:6-II:6) [SEQ ID NO: 28] | – | – | – | 1830 (507) pg/mL
5 | RVIRMCLNVGLLGEL(dA)G [SEQ ID NO: 5] (RVIRMCLNVGLLGEL[dA]G) | 96.9 | 107.0 | 108.0 | 4200 (597) pg/mL
6 | RVIRMCLNVGNLGEL(dA)G (RVIRMCLNVGNLGEL[dA]G) [SEQ ID NO: 10] | – | – | – | 4460 (235) pg/mL
